molecular target: T1, Tyrosine-protein phosphatase non-receptor type 1 (Homo sapiens, UniProt P18031); assay: Inhibition of human recombinant PTP1B using p-nitrophenyl phosphate as substrate assessed as p-nitrophenol release after 30 mins
T1 sequence (P18031 whole entry): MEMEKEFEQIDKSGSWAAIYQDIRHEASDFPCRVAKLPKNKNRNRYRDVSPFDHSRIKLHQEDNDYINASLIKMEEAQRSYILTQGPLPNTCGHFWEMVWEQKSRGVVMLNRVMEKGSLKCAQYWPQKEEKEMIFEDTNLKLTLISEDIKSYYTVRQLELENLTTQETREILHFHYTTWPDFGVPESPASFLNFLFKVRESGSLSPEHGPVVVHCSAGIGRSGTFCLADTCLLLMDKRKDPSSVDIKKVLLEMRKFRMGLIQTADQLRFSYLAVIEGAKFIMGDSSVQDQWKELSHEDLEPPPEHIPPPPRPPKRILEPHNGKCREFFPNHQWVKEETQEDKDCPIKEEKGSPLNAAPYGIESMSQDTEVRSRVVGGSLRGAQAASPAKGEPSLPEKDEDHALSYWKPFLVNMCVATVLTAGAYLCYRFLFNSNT

Row | SMILES | IC50 [µM]
1 | C=C1CC[C@]2(C(=O)O)CC[C@]3(C)C(=CC[C@@H]4[C@@]5(C)C[C@@H](O)[C@@H](O)[C@@](C)(CO)[C@@H]5CC[C@]43C)[C@@H]2[C@H]1C | 17.4
2 | CCCCCCCCCCCCCCCC(=O)C1=C(O)[C@@H](CO)OC1=O | 4
3 | C[C@H]1[C@H](C)CC[C@]2(C(=O)O)CC[C@]3(C)C(=CC[C@@H]4[C@@]5(C)CC[C@H](O)[C@@](C)(CO)[C@@H]5CC[C@]43C)[C@H]12 | 7.4
4 | C=C1CC[C@]2(C(=O)O)CC[C@]3(C)C(=CC[C@@H]4[C@@]5(C)C[C@@H](O)[C@H](O)[C@@](C)(CO)[C@@H]5CC[C@]43C)[C@@H]2[C@H]1C [ACTINIDIC ACID] | 18
5 | C[C@H]1[C@H](C)CC[C@]2(C(=O)O)CC[C@]3(C)C(=CC[C@@H]4[C@@]5(C)C[C@@H](O)[C@H](O)C(C)(C)[C@@H]5CC[C@]43C)[C@H]12 [COROSOLIC ACID] | 7
6 | C=C1CC[C@]2(C(=O)O)CC[C@]3(C)C(=CC[C@@H]4[C@@]5(C)CC[C@H](O)[C@@](C)(CO)[C@@H]5CC[C@]43C)[C@@H]2[C@H]1C [RHODODENDRIC ACID A] | 6.3
7 | C[C@@H]1CC[C@]2(C(=O)O)CC[C@]3(C)C(=CC[C@@H]4[C@@]5(C)CC[C@H](O)[C@@](C)(CO)[C@@H]5CC[C@]43C)[C@@H]2[C@]1(C)O [ROTUNDIC ACID] | 20.1

— ChEMBL document CHEMBL2086257, “Rhododendric acid A, a new ursane-type PTP1B inhibitor from the endangered plant Rhododendron brachycarpum G. Don” (Bioorg Med Chem Lett, 2012)
